Assay results: patent publication US9681664B2, “Macrocyclic picolinamides as fungicides” (Dow Agrosciences LLC, priority 2012, dated 2017)

Tests used:
Leptosphaeria nodorum = assay: Wheat glume blotch (LEPTNO) disease control; assay type: in vivo; settings: Parastagonospora nodorum, 24 h, High volume application, 1 Day Protectant, read-out: LEPTNO 1 DP disease control
Description: Technical grades of materials were dissolved in acetone, which were then mixed with nine volumes of water containing 110 ppm Triton X-100. The fungicide solutions were applied onto wheat seedlings using an automated booth sprayer to run-off. All sprayed plants were allowed to air dry prior to further handling. All fungicides were evaluated using the aforementioned method for their activity vs. all target diseases. Wheat leaf blotch and brown rust activity were also evaluated using track spray applications, in which case the fungicides were formulated as EC formulations, containing 0.1% Trycol 5941 in the spray solutions. Wheat plants (variety Yuma) were grown from seed in a greenhouse in 50% mineral soil/50% soil-less Metro mix until the first leaf was fully emerged, with 7-10 seedlings per pot. These plants were inoculated with an aqueous spore suspension of Leptosphaeria nodorum 24 hr after fungicide treatments. After inoculation the plants were kept in 100% relative humidity (one day in a dark dew chamber followed by two days in a lighted dew chamber at 20° C.) to permit spores to germinate and infect the leaf. The plants were then transferred to a greenhouse set at 20° C. for disease to develop. Fungicide formulation, application and disease assessment followed the procedures as described in the Example A.

| SMILES | pest or weed control at 100 ppm (Leptosphaeria nodorum) [%] | melting point [°C] |
| --- | --- | --- |
| COc1ccnc(C(=O)N[C@H]2CCC[C@H](Oc3ccccc3)[C@@H](Oc3ccccc3)[C@H](C)OC2=O)c1OCOC(C)=O [F20] | 80 to 100 | – |
| COc1ccnc(C(=O)N[C@H]2CCC[C@H](OCC(C)C)[C@@H](Oc3ccccc3)[C@H](C)OC2=O)c1OCOC(C)=O [F26] | 80 to 100 | – |
| COc1ccnc(C(=O)N[C@H]2CCC[C@H](Oc3ccccc3)[C@@H](OCC(C)C)[C@H](C)OC2=O)c1OCOC(C)=O [F28] | 0 to 80 | 135 to 137 |
| COc1ccnc(C(=O)N[C@H]2CCC[C@H](OCC(C)C)[C@@H](OCC(C)C)[C@H](C)OC2=O)c1OCOC(C)=O [F29] | 80 to 100 | – |
| COc1ccnc(C(=O)N[C@H]2CCC[C@H](OCc3ccccc3)[C@@H](OCc3ccccc3)[C@H](C)OC2=O)c1OCOC(C)=O [F30] | 80 to 100 | 42 to 52 |
| COc1ccnc(C(=O)N[C@H]2CCC[C@H](OCc3ccccc3)[C@@H](Oc3ccccc3)[C@H](C)OC2=O)c1OCOC(C)=O [F31] | 80 to 100 | 49 to 55 |
| COc1ccnc(C(=O)N[C@H]2CCC[C@H](OCC(C)C)[C@@H](OC3CCCC3)[C@H](C)OC2=O)c1OCOC(C)=O [F39] | 80 to 100 | – |
| CCCO[C@H]1CCC[C@H](NC(=O)c2nccc(OC)c2OC(C)=O)C(=O)O[C@@H](C)[C@@H]1Oc1ccccc1 [F141] | 80 to 100 | – |
| C=C(C)CO[C@H]1CCC[C@H](NC(=O)c2nccc(OC)c2OCOC(C)=O)C(=O)O[C@@H](C)[C@@H]1OC [F250] | 80 to 100 | – |
| COc1ccnc(C(=O)N[C@H]2CCC[C@H](OCC(C)C)[C@@H](OC)[C@H](C)OC2=O)c1OCOC(C)=O [F251] | 80 to 100 | – |
| COc1ccnc(C(=O)N[C@H]2CCC[C@H](Oc3ccccc3)[C@@H](OC)[C@H](C)OC2=O)c1OCOC(C)=O [F252] | 80 to 100 | – |
| C=C(C)CO[C@H]1CCC[C@H](NC(=O)c2nccc(OC)c2OCOC(=O)C(C)C)C(=O)O[C@@H](C)[C@@H]1OC [F253] | 80 to 100 | – |
| COc1ccnc(C(=O)N[C@H]2CCC[C@H](OCC(C)C)[C@@H](OC)[C@H](C)OC2=O)c1OCOC(=O)C(C)C [F254] | 80 to 100 | – |
| COc1ccnc(C(=O)N[C@H]2CCC[C@H](Oc3ccccc3)[C@@H](OC)[C@H](C)OC2=O)c1OCOC(=O)C(C)C [F255] | 80 to 100 | – |
